From patent US20250326769A1, “HETEROAROMATIC MACROCYCLIC ETHER CHEMOTHERAPEUTIC AGENTS” (Nuvalent, Inc., priority 2022, published 2025)

What was measured:
[1] = biological target: Ba/F3 ETV6-TRKB (Homo sapiens, UniProt Q16620); assay: Ba/F3 cell proliferation assay, ETV6-TRKB; type: cell-based; conditions: Ba/F3 stable cells, 72 hours, CellTiter-Glo; read-out: ETV6-TRKB IC50
Summary of the method: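 Ba/F3 cells retrovirally transduced with ETV6-TRKB and selected for IL-3-independent growth with puromycin were treated with 3-fold compound dilutions for 72 h. Viability read by CellTiter-Glo luminescence; IC50 from percent inhibition by four-parameter logistic fit.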

[2] = biological target: TRKB-wt (Homo sapiens (Human), UniProt Q16620); assay: Biochemical kinase assay, TRKB-wt; conditions: apparent inhibitory constant, kinase domain, Morrison equation; read-out: TRKB-wt Ki^app
Sequence of TRKB-wt (Q16620 538-807): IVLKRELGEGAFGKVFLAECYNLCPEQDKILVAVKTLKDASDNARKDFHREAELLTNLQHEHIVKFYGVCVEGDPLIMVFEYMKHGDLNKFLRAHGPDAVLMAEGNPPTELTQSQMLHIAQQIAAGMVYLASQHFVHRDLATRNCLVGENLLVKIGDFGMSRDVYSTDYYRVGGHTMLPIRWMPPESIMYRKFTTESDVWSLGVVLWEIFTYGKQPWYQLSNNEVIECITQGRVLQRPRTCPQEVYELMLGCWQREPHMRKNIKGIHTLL
Procedure: (§1) First, 250 nL of compound dissolved in DMSO (100-fold of the desired concentration) was dispensed into a 384-well plate. A 12.5 μL substrate solution containing ATP (2 mM) and fluorogenic phosphorylation substrate AQT0101 ([…] for ALK and ROS, AssayQuant) or AQT0104 (26 μM for TRKB, AssayQuant) in buffer (50 mM HEPES pH 7.5, […], 0.5 mM EGTA, 10 mM MgCl2) was added and mixed thoroughly. Then, a 12.5 μL kinase solution containing ALK (1.5 nM, Carna, 08-518), ALK I1171N/D1203N (4 nM, SignalChem, custom-made), ROS1 (0.6 nM, Carma, 08-163), ROS1-G2032R (0.5 nM, SignalChem, R14-121BG), or TRKB-wt (1.5 nM, SignalChem, N17-11G) kinase domains in buffer ([…] pH 7.5, 0.01% Brij-[…], 0.4 mg/mL BSA, 0.5 mM EGTA, and 10 mM MgCl2) was added and mixed thoroughly. The plate was sealed and read by SpectraMax Paradigm at λ=485 nm every 2 minutes for 120 minutes at 30° C. Initial rates of reaction (v) were calculated from the change in fluorescence intensity over time during the initial, linear portion of the reaction. Finally, apparent inhibitory constants (Ki^app) were determined from regression of v and I (inhibitor concentration) to Morrison Equation (E=enzyme concentration): […]
(§2) Compound potency can be interpreted by binning Ki^app values against the targets: bin A for high potency, Ki^app<50 nM; bin B for medium potency, 50 nM≤Ki^app<500 nM; and bin C for low potency, Ki^app≥500 nM. […] “nd” means not determined.

[3] = biological target: Ba/F3 EML4-ALK v1 I1171N/D1203N (Homo sapiens (Human), UniProt Q9HC35+Q9UM73, D1203N/I1171N); assay: Ba/F3 cell proliferation assay, EML4-ALK v1 I1171N/D1203N; type: cell-based; conditions: for IC50: Ba/F3 stable cells, 72 hours, CellTiter-Glo
Sequence of Ba/F3 EML4-ALK v1 I1171N/D1203N (Q9UM73 other isoform, or with tags, fused parts or gaps I1171N/D1203N): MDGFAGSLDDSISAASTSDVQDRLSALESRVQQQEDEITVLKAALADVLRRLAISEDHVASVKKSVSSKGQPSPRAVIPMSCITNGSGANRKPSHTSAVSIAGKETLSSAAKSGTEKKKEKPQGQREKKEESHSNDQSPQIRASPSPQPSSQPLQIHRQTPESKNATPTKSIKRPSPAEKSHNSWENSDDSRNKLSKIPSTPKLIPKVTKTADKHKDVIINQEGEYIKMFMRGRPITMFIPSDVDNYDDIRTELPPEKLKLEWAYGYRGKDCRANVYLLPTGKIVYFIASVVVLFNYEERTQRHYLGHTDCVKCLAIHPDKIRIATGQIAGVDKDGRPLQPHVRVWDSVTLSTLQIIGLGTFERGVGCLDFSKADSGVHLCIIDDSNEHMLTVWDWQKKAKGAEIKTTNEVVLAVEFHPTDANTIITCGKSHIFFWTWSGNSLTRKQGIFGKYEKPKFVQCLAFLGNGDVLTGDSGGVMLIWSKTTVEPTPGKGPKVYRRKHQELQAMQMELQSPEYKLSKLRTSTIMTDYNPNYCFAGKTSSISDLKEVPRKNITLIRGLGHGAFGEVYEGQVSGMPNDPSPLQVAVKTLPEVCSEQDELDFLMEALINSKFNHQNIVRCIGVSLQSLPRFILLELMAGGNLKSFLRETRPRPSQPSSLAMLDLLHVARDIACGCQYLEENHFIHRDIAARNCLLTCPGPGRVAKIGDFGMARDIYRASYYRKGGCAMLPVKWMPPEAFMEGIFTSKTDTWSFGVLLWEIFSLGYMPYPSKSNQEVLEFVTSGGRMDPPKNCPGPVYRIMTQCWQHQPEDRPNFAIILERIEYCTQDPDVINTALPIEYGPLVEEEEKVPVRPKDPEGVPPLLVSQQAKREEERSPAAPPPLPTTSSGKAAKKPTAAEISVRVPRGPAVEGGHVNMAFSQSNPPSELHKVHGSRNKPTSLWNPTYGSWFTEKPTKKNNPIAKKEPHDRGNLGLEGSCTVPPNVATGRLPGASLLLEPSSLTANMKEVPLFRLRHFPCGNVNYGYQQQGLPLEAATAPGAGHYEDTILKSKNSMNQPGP
Summary of the method: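 Ba/F3 cells made IL-3-independent by retroviral EML4-ALK v1 I1171N/D1203N and selected with puromycin, then treated with 3-fold compound dilutions for 72 h. Viability by CellTiter-Glo luminescence; IC50 from four-parameter logistic fit.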

[4] = biological target: ALK I1171N/D1203N (Homo sapiens (Human), UniProt Q9UM73, D1203N/I1171N); assay: Biochemical kinase assay, ALK I1171N/D1203N; conditions: apparent inhibitory constant, kinase domain, Morrison equation; read-out: ALK-I1171N-D1203N Ki^app
Sequence of ALK I1171N/D1203N (Q9UM73 1116-1392 I1171N/D1203N): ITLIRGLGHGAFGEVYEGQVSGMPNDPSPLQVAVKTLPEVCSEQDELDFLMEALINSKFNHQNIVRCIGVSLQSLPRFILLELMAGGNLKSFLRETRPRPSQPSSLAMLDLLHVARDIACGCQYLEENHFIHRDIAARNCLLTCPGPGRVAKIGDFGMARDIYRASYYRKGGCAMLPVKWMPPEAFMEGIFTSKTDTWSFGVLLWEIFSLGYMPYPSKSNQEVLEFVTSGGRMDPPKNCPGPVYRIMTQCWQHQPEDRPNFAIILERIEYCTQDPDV
Procedure: as §1, §2

[5] = TRKB selectivity, ratio of Ba/F3 IC50 values

Sequence of Ba/F3 ETV6-TRKB (Q16620 32-822 limits assumed, change not shown): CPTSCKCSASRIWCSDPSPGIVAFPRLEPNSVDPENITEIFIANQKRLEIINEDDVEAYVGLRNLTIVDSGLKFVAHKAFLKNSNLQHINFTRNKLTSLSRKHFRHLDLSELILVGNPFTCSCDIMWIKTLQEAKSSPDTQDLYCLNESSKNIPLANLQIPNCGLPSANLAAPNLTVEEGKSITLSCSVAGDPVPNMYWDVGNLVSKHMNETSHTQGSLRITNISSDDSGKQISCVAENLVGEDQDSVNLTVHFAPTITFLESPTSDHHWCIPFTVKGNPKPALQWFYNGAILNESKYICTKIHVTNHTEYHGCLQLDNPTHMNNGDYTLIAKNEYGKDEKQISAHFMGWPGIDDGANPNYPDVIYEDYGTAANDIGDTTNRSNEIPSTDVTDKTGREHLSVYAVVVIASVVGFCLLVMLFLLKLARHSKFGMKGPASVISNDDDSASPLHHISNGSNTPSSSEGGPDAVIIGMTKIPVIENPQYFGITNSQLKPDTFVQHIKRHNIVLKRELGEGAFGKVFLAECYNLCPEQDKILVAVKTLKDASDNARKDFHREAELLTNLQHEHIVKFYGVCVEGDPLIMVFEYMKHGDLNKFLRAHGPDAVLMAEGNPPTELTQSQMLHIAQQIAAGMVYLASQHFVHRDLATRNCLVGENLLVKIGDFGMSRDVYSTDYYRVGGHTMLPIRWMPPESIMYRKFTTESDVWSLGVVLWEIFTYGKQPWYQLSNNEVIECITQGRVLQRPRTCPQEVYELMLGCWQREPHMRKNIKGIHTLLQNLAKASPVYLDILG

IC50 [1] | Ki [2] | IC50 [3] | Ki [4] | SMILES | ETV6-TRKB / EML4-ALK v1 I1171N/D1203N [3, 5] | Selectivity for Ba/F3 EML4-ALK v1 I1171N-D1203N IC50 over Ba/F3 ETV6-TRKB IC50 ([3]; TRKB selectivity, ratio of Ba/F3 IC50 values, Table 6 bins)
> 500 nM | 50 to 500 nM | 0.1 to 50 nM | < 50 nM | CON(C)C(=O)c1nn(CC2CC2)c2c1Cc1cn(C)nc1-c1ccc(F)cc1[C@@H](C)Oc1cc-2cnc1N [Example 34, N-methoxy-N-methyl-(R)-22-amino-3-(cyclopropylmethyl)-16-fluoro-10-methyl-19-methyl-20-oxa-3,4,10,11,23-pentaazapentacyclo[19.3.1.0^2,^6.0^8,^12.0^13,^18]pentacosa-1(24),2(6),4,8,11,13,15,17,21(25),22-decaene-5-carboxamide] | B (bin B for high selectivity, ratio≥10-fold but<30) | 
> 500 nM | 50 to 500 nM | 50 to 500 nM | < 50 nM | C[C@H]1Oc2cc(cnc2N)-c2c(c([S+](C)[O-])nn2CC2CC2)Cc2cn(C)nc2-c2ccc(F)cc21 (stereo partly drawn) [Example 17, (R)-3-(cyclopropylmethyl)-16-fluoro-10-methyl-19-methyl-5-(methylsulfinyl)-20-oxa-3,4,10,11,23-pentaazapentacyclo[19.3.1.0^2,^6.0^8,^12.0^13,^18]pentacosa-1(24),2(6),4,8,11,13,15,17,21(25),22-decaen-22-ylamine] | C (bin C for moderate selectivity, ratio≥1 but<10) | 
> 500 nM | ≥ 500 nM | 50 to 500 nM | 50 to 500 nM | C[C@H]1Oc2cc(cnc2N)-c2c(c(S(C)(=O)=O)nn2CC2CC2)Cc2cn(C)nc2-c2ccc(F)cc21 [Example 2, (R)-3-(cyclopropylmethyl)-16-fluoro-5-mesyl-10-methyl-19-methyl-20-oxa-3,4,10,11,23-pentaazapentacyclo[19.3.1.0^2,6.0^8,12.0^13,18]pentacosa-1(24),2(6),4,8,11,13,15,17,21(25),22-decaen-22-ylamine] | C (bin C for moderate selectivity, ratio≥1 but<10) | 
> 500 nM | ≥ 500 nM | 50 to 500 nM | < 50 nM | C[C@H]1Oc2cc(cnc2N)-c2c(c(C(=O)N(C)C3CC3)nn2CC2CC2)Cc2cn(C)nc2-c2ccc(F)cc21 [Example 40, N-cyclopropyl-N-methyl-(R)-22-amino-3-(cyclopropylmethyl)-16-fluoro-10-methyl-19-methyl-20-oxa-3,4,10,11,23-pontaazapentacyclo[19.3.1.0^2,^6.0^8,^12.0^13,^18]pentacosa-1(24),2(6),4,8,11,13,15,17,21(25),22-decaene-5-carboxamide] | A (bin A for very high selectivity, ratio≥30-fold) | 
> 500 nM | ≥ 500 nM | 50 to 500 nM | < 50 nM | C[C@H]1Oc2cc(cnc2N)-c2c(c(C(=O)N(C)C)nn2CC2CCC2)Cc2cn(C)nc2-c2ccc(F)cc21 [Example 33, (19R)-22-amino-3-(cyclobutylmcthyl)-16-fluoro-N,N,10,19-tetramethyl-20-oxa-3,4,10,11,23-pentaazapentacyclo[19.3.1.0^2,^6.0^8,^12.0^13,^18]pentacosa-1(24),2(6),4,8,11,13,15,17,21(25),22-decaene-5-carboxamide] | A (bin A for very high selectivity, ratio≥30-fold) | 
> 500 nM | ≥ 500 nM | 0.1 to 50 nM | < 50 nM | C[C@H]1Oc2cc(cnc2N)-c2c(c(C(=O)N(C)C)nn2CC2CC2)Oc2cccnc2-c2ccc(F)cc21 [Example 39, N,N-dimethyl-(R)-23-amino-3-(cyclopropylmethyl)-17-fluoro-20-methyl-7,21-dioxa-3,4,12,24-tetraazapentacyclo[20.3.1.0^2,6.0^8,13.0^14,19]hexacosa-1(25),2(6),4,8(13),9,11,14,16,18,22(26),23-undecaene-5-carboxamide] | A (bin A for very high selectivity, ratio≥30-fold) | 
> 500 nM | ≥ 500 nM | 0.1 to 50 nM | < 50 nM | CC1CCCN1C(=O)c1nn(CC2CC2)c2c1Cc1cn(C)nc1-c1ccc(F)cc1[C@@H](C)Oc1cc-2cnc1N (stereo partly drawn) [Example 31, {(R)-22-amino-3-(cyclopropylmethyl)-16-fluoro-10-methyl-19-methyl-20-oxa-3,4,10,11,23-pentaazapentacyclo[19.3.1.0^2,^6.0^8,^12.0^13,^18]pentacosa-1(24),2(6),4,8,11, 13,15,17,21(25),22-decaen-5-yl}(2-methyl-1-pyrrolidinyl)methanone] | A (bin A for very high selectivity, ratio≥30-fold) | 
> 500 nM | ≥ 500 nM | 50 to 500 nM | < 50 nM | C[C@H]1Oc2cc(cnc2N)-c2c(c(C(=O)N(C)CC(F)(F)F)nn2CC2CC2)Cc2cn(C)nc2-c2ccc(F)cc21 [Example 36, (19R)-22-amino-3-(cyclopropylmethyl)-16-fluoro-N,10,19-trimethyl-N-(2,2,2-trifluoroethyl)-20-oxa-3,4,10,11,23-pentaazapentacyclo[19.3.1.0^2,^6.0^8,^12.0^13,^18]pentacosa-1(24),2(6),4,8,11,13,15,17,21(25),22-decaene-5-carboxamide] | A (bin A for very high selectivity, ratio≥30-fold) | 
> 500 nM | 50 to 500 nM | 50 to 500 nM | < 50 nM | C[C@H]1Oc2cc(cnc2N)-c2c(c(C(N)=O)nn2C2CCC2)Cc2cn(C)nc2-c2ccc(F)cc21 [Example 30, (R)-22-amino-3-cyclobutyl-16-fluoro-10-methyl-19-methyl-20-oxa-3,4,10,11,23-pentaazapentacyclo[19.3.1.0^2,^6.0^8,^12.0^13,^18] pentacosa-1(24),2(6),4,8,11,13,15,17,21(25),22-decaene-5-carboxamide] | B (bin B for high selectivity, ratio≥10-fold but<30) | 
> 500 nM | 50 to 500 nM | 50 to 500 nM | < 50 nM | Cc1cc2n(n1)-c1ccc(F)cc1[C@@H](C)Oc1cc(cnc1N)-c1c(C#N)nn(C)c1C2=O [Example 18, (R)-22-amino-16-fluoro-5-methyl-10,19-dimethyl-7-oxo-20-oxa-4,5,11,12,23-pentaazapentacyclo[19.3.1.0^2,^6.0^8,^12.0^13,^18]pentacosa-1(24),2(6),3,8,10,13,15,17,21(25),22-decaene-3-carbonitrile] | C (bin C for moderate selectivity, ratio≥1 but<10) | CC (bin CC for the selectivity with the ratio≥5 but<10)

SMILES | IC50 [1] | Ki [2] | IC50 [3] | Ki [4] | ETV6-TRKB / EML4-ALK v1 I1171N/D1203N [3, 5] | Selectivity for Ba/F3 EML4-ALK v1 I1171N-D1203N IC50 over Ba/F3 ETV6-TRKB IC50 ([3]; TRKB selectivity, ratio of Ba/F3 IC50 values, Table 6 bins)
CCOC(=O)c1nn(CC2CC2)c2c1Oc1cccnc1-c1ccc(F)cc1[C@@H](C)Oc1cc-2cnc1N [Example 55, ethyl (20R)-23-amino-3-(cyclopropylmethyl)-17-fluoro-20-methyl-7,21-dioxa-3,4,12,24-tetraazapentacyclo[20.3.1.0^2,^6.0^8,^13.0^14,^19]hexacosa-1(25),2(6),4,8(13),9,11,14,16,18,22(26),23-undecaene-5-carboxylate] | > 500 nM | ≥ 500 nM | 50 to 500 nM | < 50 nM | B (bin B for high selectivity, ratio≥10-fold but<30) | 
